Reference: PubChem BioAssay AID2060487 (Molecular Pharmacology Branch, DTP, NCI, 2025)

System: 997537-175-T-J1-PDC complex spheroid viability
Assay: Anticancer human tumor 997537-175-T-J1-PDC patient-derived colon adenocarcinoma cell line growth inhibition [GQUAD]
Conditions: for viability, T/C: stronger effect = lower value
From the text: DNA G-quadruplex Stabilizer Agents in Combinations in Complex Spheroids
A high-throughput screen of multi-cell type tumor spheroids was designed to identify active combinations of DNA G-quadruplex stabilizer agents and targeted small molecules. Complex spheroids include a stromal component modeled by human endothelial cells (HUVEC) and fibroblasts modeled by human mesenchymal stem cells (MSCs). The concentration ranges selected for each drug and investigational agent were based upon clinically achievable concentrations if the clinical Cmax of the agent was known.
Compounds. The drugs and investigational agents: pidnarulex (CX-5461; NSC782164), APTO-253 (NSC789042), BRACO-19 (NSC847499), peposertib (NSC802822), ceralasertib (NSC780249), elimusertib (NSC800525), camonsertib (NSC841442), AZD-1390 (NSC803789), olaparib (NSC753686), talazoparib (NSC767125), ART-558 (NSC835418), sotorasib (NSC818433), MRTX-1133 (NSC836407), SN-38 (NSC673596), topotecan (NSC609699), etoposide (NSC141540), doxorubicin (NSC123127), gemcitabine (NSC613327), 5-fluorouracil (NSC19893), paclitaxel (NSC125973), vemurafenib (NSC761431), panobinostat (NSC761190), R-306465 (JNJ-16241199; NSC773264), adavosertib (NSC754352), TP-3654 (NSC805149), carboplatin (NSC241240), KSQ-4279 (NSC840948), and staurosporine (NSC755774) were obtained from the National Cancer Institute (NCI) Developmental Therapeutics Program Chemical Repository (34). The FDA-approved anticancer drug set is available from the NCI Developmental Therapeutics Program. […] The stock solutions were prepared in dimethyl sulfoxide (DMSO, Sigma-Aldrich, St. Louis, MO, cat. D2650) at 800-fold the tested concentration and stored at -70 degrees C prior to their use. All drugs and investigational agents were tested over a range starting from a high concentration at or near the clinical Cmax and decreasing in half-log increments. If the clinical Cmax for an agent had not been determined, the highest concentration tested was 10 microM.
2.3 Cell Culture. All cells were maintained in an incubator at 37 degrees C and 5% CO2 with 95% humidity. The PDC lines were cultured according to standard operating procedures established by the NCI PDMR. All PDCs were thawed and cultured in Matrigel-coated flasks prepared with a working solution of 1X Ham's F-12 nutrient mix, without supplementation (Invitrogen, cat. 11765054), 100 U/mL penicillin-streptomycin (Invitrogen, cat. 15140122), and 2.5% Matrigel (Corning Inc., cat. 354248) for the first three passages. The 857933-349-R-J2-PDC line was cultured in 6C/Colon 1B media, which includes advanced DMEM/F-12 (Thermo Fisher Scientific, cat. 12634028), 10 mM HEPES (Thermo Fisher Scientific, cat. 15630080), 1X GlutaMAX supplement (Thermo Fisher Scientific, cat. 35050061), 0.1 mg/mL primocin (InvivoGen, cat. ant-pm-2), 10% defined fetal bovine serum, heat inactivated (HyClone Laboratories Inc., cat. SH30070.03HI), 50% L-WRN conditioned media (ATCC, cat. CRL-3276), 1.25 mM N-Acetyl-L-cysteine (Sigma-Aldrich, cat. A9165), 10 mM nicotinamide (Sigma-Aldrich, cat. N0636), 1X B-27 supplement (Thermo Fisher Scientific, cat. 17504044), 1X N-2 supplement (Thermo Fisher Scientific, cat. 17502048), 10 microM Y-27632 dihydrochloride (Tocris Bioscience, cat. 1254), and 50 ng/mL human EGF recombinant protein (Thermo Fisher Scientific, cat. PHG0311). The 485176-168-R4-J1-PDC line was cultured in Panc media, which includes all 6C/Colon 1B media components plus 100 ng/mL human FGF-10 (Thermo Fisher Scientific, cat. 100-26), 500 nM SB-431542 (Selleckchem, cat. S1067), and gastrin (Tocris, cat. 3006).
[…]

[1] = curve of first compound, second compound 0.0316 µM
[2] = curve of first compound, second compound 0.1 µM
[3] = curve of first compound, second compound 0.316 µM
[4] = curve of first compound, second compound 1 µM
[5] = curve of first compound, second compound 3.16 µM
[6] = curve of first compound, second compound 10 µM
[7] = second compound 0.0316 µM, first compound 0.0316 µM
[8] = second compound 0.0316 µM, first compound 0.1 µM
[9] = second compound 0.0316 µM, first compound 0.316 µM
[10] = second compound 0.0316 µM, first compound 1 µM
[11] = second compound 0.0316 µM, first compound 3.16 µM
[12] = second compound 0.0316 µM, first compound 10 µM
[13] = second compound 0.1 µM, first compound 0.0316 µM
[14] = second compound 0.1 µM, first compound 0.1 µM
[15] = second compound 0.1 µM, first compound 0.316 µM
[16] = second compound 0.1 µM, first compound 1 µM
[17] = second compound 0.1 µM, first compound 3.16 µM
[18] = second compound 0.1 µM, first compound 10 µM
[19] = second compound 0.316 µM, first compound 0.0316 µM
[20] = second compound 0.316 µM, first compound 0.1 µM
[21] = second compound 0.316 µM, first compound 0.316 µM
[22] = second compound 0.316 µM, first compound 1 µM
[23] = second compound 0.316 µM, first compound 3.16 µM
[24] = second compound 0.316 µM, first compound 10 µM
[25] = second compound 1 µM, first compound 0.0316 µM
[26] = second compound 1 µM, first compound 0.1 µM
[27] = second compound 1 µM, first compound 0.316 µM
[28] = second compound 1 µM, first compound 1 µM
[29] = second compound 1 µM, first compound 3.16 µM
[30] = second compound 1 µM, first compound 10 µM
[31] = second compound 3.16 µM, first compound 0.0316 µM
[32] = second compound 3.16 µM, first compound 0.1 µM
[33] = second compound 3.16 µM, first compound 0.316 µM
[34] = second compound 3.16 µM, first compound 1 µM
[35] = second compound 3.16 µM, first compound 3.16 µM
[36] = second compound 3.16 µM, first compound 10 µM
[37] = second compound 10 µM, first compound 0.0316 µM
[38] = second compound 10 µM, first compound 0.1 µM
[39] = second compound 10 µM, first compound 0.316 µM
[40] = second compound 10 µM, first compound 1 µM
[41] = second compound 10 µM, first compound 3.16 µM
[42] = second compound 10 µM, first compound 10 µM
[43] = compound alone, run of 04/16/2024
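Note: spheroids exposed to the agents for 7 days.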
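Throughout, for viability, T/C: 100% = DMSO vehicle control viability.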

With `C#Cc1c(F)ccc2cc(O)cc(-c3ncc4c(N5CC6CCC(C5)N6)nc(OCC56CCCN5CC(F)C6)nc4c3F)c12` (centres undefined) + Cc1[nH]c2ccc(F)cc2c1-c1nc2c3cccnc3c3ncccc3c2[nH]1 the IC50 [1] was 1.87 µM, the IC50 [2] was 1.9 µM and the IC50 [3] was 1.84 µM. It also gave an IC50 [4] of 1.29 µM, an IC50 [5] of 0.563 µM and an IC50 [6] of 0.46 µM. The viability, T/C [7] was 87.5%, the viability, T/C [8] was 90.5% and the viability, T/C [9] was 97%. The viability, T/C [10] was 71.1%, the viability, T/C [11] was 29.3% and the viability, T/C [12] was 35.4%. For the same compound, the viability, T/C [13] was 98.8%, the viability, T/C [14] was 103% and the viability, T/C [15] was 99.6%. The viability, T/C [16] was 74.2%, the viability, T/C [17] was 30.9% and the viability, T/C [18] was 26.6%. The viability, T/C [19] was 91.6%, the viability, T/C [20] was 87.7% and the viability, T/C [21] was 85.4%. For the same compound, the viability, T/C [22] was 63.3%, the viability, T/C [23] was 35.4% and the viability, T/C [24] was 41%. For the same compound, the viability, T/C [25] was 95.9%, the viability, T/C [26] was 88.3% and the viability, T/C [27] was 79.6%. The viability, T/C [28] was 56.9%, the viability, T/C [29] was 29.5% and the viability, T/C [30] was 38.2%. For the same compound, the viability, T/C [31] was 89.4%, the viability, T/C [32] was 73.7% and the viability, T/C [33] was 62%. It also gave a viability, T/C [34] of 41%, a viability, T/C [35] of 21.5% and a viability, T/C [36] of 15.2%. For the same compound, the viability, T/C [37] was 70.7%, the viability, T/C [38] was 74.1% and the viability, T/C [39] was 60.6%. The viability, T/C [40] was 26.9%, the viability, T/C [41] was 10.2% and the viability, T/C [42] was 11.8%.

`Cc1cnc(CNC(=O)c2c(=O)c3ccc(N4CCCN(C)CC4)nc3n3c2sc2ccccc23)cn1` was tested, and the viability, T/C (compound 0.1 µM) was 95.7% [middle of 12 runs], the viability, T/C (compound 0.316 µM) was 96.5% [middle of 12 runs] and the viability, T/C (compound 1 µM) was 103% [middle of 12 runs]. The viability, T/C (compound 10 µM) was 91.5% [middle of 12 runs] and the IC50 [43] was > 10 µM.

With `Cc1[nH]c2ccc(F)cc2c1-c1nc2c3cccnc3c3ncccc3c2[nH]1` the viability, T/C (compound 0.1 µM) was 95.2% [middle of 12 runs], the viability, T/C (compound 0.316 µM) was 98.8% [middle of 12 runs] and the viability, T/C (compound 3.16 µM) was 89.3% [middle of 12 runs]. For the same compound, the IC50 [43] was > 10 µM and the IC50 (compound alone, run of 04/22/2024) was > 10 µM.

`COc1ncnc(C2CC2)c1-c1ncc2cnn(Cc3ccc(-c4nc(C(F)(F)F)cn4C(C)C)cc3)c2n1` + Cc1cnc(CNC(=O)c2c(=O)c3ccc(N4CCCN(C)CC4)nc3n3c2sc2ccccc23)cn1 was tested, and the IC50 [1] was > 10 µM, the IC50 [2] was > 10 µM and the IC50 [3] was > 10 µM. For the same compound, the IC50 [4] was > 10 µM, the IC50 [5] was > 10 µM and the IC50 [6] was > 10 µM. The viability, T/C [7] was 118%, the viability, T/C [8] was 78.4% and the viability, T/C [9] was 102%. The viability, T/C [10] was 66.6%, the viability, T/C [11] was 55.3% and the viability, T/C [12] was 96.1%. The viability, T/C [13] was 95.3%, the viability, T/C [14] was 69% and the viability, T/C [15] was 88.5%. The viability, T/C [16] was 92.5%, the viability, T/C [17] was 85% and the viability, T/C [18] was 94.5%. It also gave a viability, T/C [19] of 89.1%, a viability, T/C [20] of 86.2% and a viability, T/C [21] of 89.5%. It also gave a viability, T/C [22] of 88.5%, a viability, T/C [23] of 91.3% and a viability, T/C [24] of 92.7%. It also gave a viability, T/C [25] of 73.8%, a viability, T/C [26] of 85.1% and a viability, T/C [27] of 100%. It also gave a viability, T/C [28] of 101%, a viability, T/C [29] of 121% and a viability, T/C [30] of 97.5%. It also gave a viability, T/C [31] of 56%, a viability, T/C [32] of 107% and a viability, T/C [33] of 104%. The viability, T/C [34] was 84.7%, the viability, T/C [35] was 106% and the viability, T/C [36] was 97.4%. For the same compound, the viability, T/C [37] was 75.3%, the viability, T/C [38] was 109% and the viability, T/C [39] was 101%. It also gave a viability, T/C [40] of 92%, a viability, T/C [41] of 102% and a viability, T/C [42] of 116%.
